# Test results published in ChEMBL document CHEMBL6109087, “Design and synthesis of azole derivatives of echinocystic acid as α-glucosidase inhibitors with hypoglycemic activity” (Eur J Med Chem, 2025).
# Calls of active or inactive are those of the source. The calls are words filed in the database; no cut-off is given here.
# Experiments:
# [1] = molecular target: Alpha-glucosidase (Saccharomyces cerevisiae S288c) (UniProt P53341+P38158+P07265); assay: Inhibition of alpha-glucosidase using 4-Nitrophenyl-[…]-D-glucopyranoside (pNPG) as substrate assessed as inhibition rate at 30 uM relative control; assay type: protein assay
# [2] = molecular target: T1, Alpha-glucosidase (Saccharomyces cerevisiae S288c, UniProt P53341+P38158+P07265); assay: Inhibition of alpha-glucosidase using 4-Nitrophenyl-[…]-D-glucopyranoside (pNPG) as substrate; assay type: protein assay
# [3] = Cytotoxicity against human LO2 cells assessed as cell viability measured after 24 hrs by MTT assay; assay type: toxicity, cell-based, L02
# [4] = tested on: alpha-glucosidase (unknown origin); assay: Selectivity index, ratio of CC50 for Cytotoxicity against human LO2 cells to IC50 for alpha-glucosidase (unknown origin); assay type: toxicity, cell-based, L02; conditions: read-out: Selectivity Index
# [5] = tested on: Mus musculus; assay: Reduction in blood glucose concentration in male C57BL/6J mouse assessed as peak blood glucose and glucose AUC at 100 mg/kg preadministered for 30 mins via gavage followed by treated 2 g/Kg of sucrose and measured up to 120 mins post sucrose challenge by sucrose loading test; assay type: functional, organism-based; conditions: time 150.0 min
# [6] = molecular target: T1, Alpha-glucosidase; assay: Inhibition of alpha-glucosidase; assay type: protein assay
# [7] = molecular target: T1, Alpha-glucosidase; assay: Binding affinity to alpha-glucosidase assessed as inhibition constant; assay type: protein assay
# [8] = molecular target: T1, Alpha-glucosidase; assay: Inhibition of alpha-glucosidase using P-nitro phenyl-alpha-D-glucopyranoside as substrate assessed as substrate hydrolysis; assay type: protein assay
SMILES,inhibition [1],IC50 [2],other results
COc1cc(-c2nnc(COC(=O)[C@]34CCC(C)(C)C[C@H]3C3=CC[C@@H]5[C@@]6(C)CC[C@H](O)C(C)(C)[C@@H]6CC[C@@]5(C)[C@]3(C)C[C@H]4O)o2)cc(OC)c1OC,49.1%,> 30 µM,
COc1ccc(-n2cc(CNC(=O)COC(=O)[C@]34CCC(C)(C)C[C@H]3C3=CC[C@@H]5[C@@]6(C)CC[C@H](O)C(C)(C)[C@@H]6CC[C@@]5(C)[C@]3(C)C[C@H]4O)nn2)cc1,51.4%,> 30 µM,
CC1(C)CC[C@]2(C(=O)OCC(=O)NCc3cn(-c4ccccc4)nn3)[C@H](O)C[C@]3(C)C(=CC[C@@H]4[C@@]5(C)CC[C@H](O)C(C)(C)[C@@H]5CC[C@]43C)[C@@H]2C1,59.9%,21.7 µM,
CC1(C)CC[C@]2(C(=O)OCc3nc(-c4ccc(Cl)cc4)no3)[C@H](O)C[C@]3(C)C(=CC[C@@H]4[C@@]5(C)CC[C@H](O)C(C)(C)[C@@H]5CC[C@]43C)[C@@H]2C1,85.1%,4.11 µM,CC50 at 24 h [3]: 108 µM; selectivity ratio [4]: 26.4
COc1ccc(-c2noc(COC(=O)[C@]34CCC(C)(C)C[C@H]3C3=CC[C@@H]5[C@@]6(C)CC[C@H](O)C(C)(C)[C@@H]6CC[C@@]5(C)[C@]3(C)C[C@H]4O)n2)cc1,94.8%,3.41 µM,CC50 at 24 h [3]: 38.5 µM; selectivity ratio [4]: 11.3
CC1(C)CC[C@]2(C(=O)OCc3nnc(-c4ccc(Cl)cc4)o3)[C@H](O)C[C@]3(C)C(=CC[C@@H]4[C@@]5(C)CC[C@H](O)C(C)(C)[C@@H]5CC[C@]43C)[C@@H]2C1,67.3%,21.94 µM,
CC1(C)CC[C@]2(C(=O)OCc3nc(-c4ccc(F)cc4)no3)[C@H](O)C[C@]3(C)C(=CC[C@@H]4[C@@]5(C)CC[C@H](O)C(C)(C)[C@@H]5CC[C@]43C)[C@@H]2C1,64.6%,16.01 µM,
COc1ccc(-n2cc(CNC(=O)[C@]34CCC(C)(C)C[C@H]3C3=CC[C@@H]5[C@@]6(C)CC[C@H](O)C(C)(C)[C@@H]6CC[C@@]5(C)[C@]3(C)C[C@H]4O)nn2)cc1,48.5%,> 30 µM,
COc1ccc(-c2nnc(COC(=O)[C@]34CCC(C)(C)C[C@H]3C3=CC[C@@H]5[C@@]6(C)CC[C@H](O)C(C)(C)[C@@H]6CC[C@@]5(C)[C@]3(C)C[C@H]4O)o2)cc1,56.5%,22.28 µM,
CC1(C)CC[C@]2(C(=O)OCC(=O)NCc3cn(-c4ccc(Cl)c(Cl)c4)nn3)[C@H](O)C[C@]3(C)C(=CC[C@@H]4[C@@]5(C)CC[C@H](O)C(C)(C)[C@@H]5CC[C@]43C)[C@@H]2C1,87.3%,3.4 µM,CC50 at 24 h [3]: 198 µM; selectivity ratio [4]: 58.3
CC1(C)CC[C@]2(C(=O)OCc3nc(-c4ccccc4)no3)[C@H](O)C[C@]3(C)C(=CC[C@@H]4[C@@]5(C)CC[C@H](O)C(C)(C)[C@@H]5CC[C@]43C)[C@@H]2C1,58.3%,26.2 µM,
CC1(C)CC[C@]2(C(=O)O)[C@H](O)C[C@]3(C)C(=CC[C@@H]4[C@@]5(C)CC[C@H](O)C(C)(C)[C@@H]5CC[C@]43C)[C@@H]2C1,18.4%,59.91 µM,CC50 at 24 h [3]: 56.2 µM; selectivity ratio [4]: 0.94; Activity [5]: Active
CC1(C)CC[C@]2(C(=O)OCCn3ncn(-c4ccc(Cl)cc4)c3=O)[C@H](O)C[C@]3(C)C(=CC[C@@H]4[C@@]5(C)CC[C@H](O)C(C)(C)[C@@H]5CC[C@]43C)[C@@H]2C1,47.7%,28.69 µM,
CC1(C)CC[C@]2(C(=O)NCc3cn(-c4ccc(Cl)cc4)nn3)[C@H](O)C[C@]3(C)C(=CC[C@@H]4[C@@]5(C)CC[C@H](O)C(C)(C)[C@@H]5CC[C@]43C)[C@@H]2C1,69.2%,21.19 µM,
CC1(C)CC[C@]2(C(=O)OCC(=O)NCc3cn(-c4ccc(Br)cc4)nn3)[C@H](O)C[C@]3(C)C(=CC[C@@H]4[C@@]5(C)CC[C@H](O)C(C)(C)[C@@H]5CC[C@]43C)[C@@H]2C1,68%,23.62 µM,
CC1(C)CC[C@]2(C(=O)OCc3nc(-c4ccc(Cn5cncn5)cc4)no3)[C@H](O)C[C@]3(C)C(=CC[C@@H]4[C@@]5(C)CC[C@H](O)C(C)(C)[C@@H]5CC[C@]43C)[C@@H]2C1,10.5%,> 30 µM,

SMILES,inhibition [1],IC50 [2],other results
CC1(C)CC[C@]2(C(=O)NCc3cn(-c4ccccc4)nn3)[C@H](O)C[C@]3(C)C(=CC[C@@H]4[C@@]5(C)CC[C@H](O)C(C)(C)[C@@H]5CC[C@]43C)[C@@H]2C1,55.9%,22.72 µM,
CC1(C)CC[C@]2(C(=O)OCC(=O)NCc3cn(-c4ccc(F)cc4)nn3)[C@H](O)C[C@]3(C)C(=CC[C@@H]4[C@@]5(C)CC[C@H](O)C(C)(C)[C@@H]5CC[C@]43C)[C@@H]2C1,61.5%,18.52 µM,
CC1(C)CC[C@]2(C(=O)OCc3nnc(-c4ccc(Cl)c(Cl)c4)o3)[C@H](O)C[C@]3(C)C(=CC[C@@H]4[C@@]5(C)CC[C@H](O)C(C)(C)[C@@H]5CC[C@]43C)[C@@H]2C1,69.8%,17.25 µM,
COc1cc(-n2cc(CNC(=O)[C@]34CCC(C)(C)C[C@H]3C3=CC[C@@H]5[C@@]6(C)CC[C@H](O)C(C)(C)[C@@H]6CC[C@@]5(C)[C@]3(C)C[C@H]4O)nn2)cc(OC)c1OC,6.67%,> 30 µM,
O=C(Cc1cccs1)N[C@@H]1C(=O)N2C(C(=O)O)=C(CSc3nc[nH]n3)CS[C@H]12 [CEFETRIZOLE],,,IC50 [6]: 2.1 µM; Ki [7]: 0.578 µM
C[C@H]1O[C@H](O[C@H]2[C@H](O)[C@@H](O)[C@@H](O[C@H]3[C@H](O)[C@@H](O)C(O)O[C@@H]3CO)O[C@@H]2CO)[C@H](O)[C@@H](O)[C@@H]1N[C@H]1C=C(CO)[C@@H](O)[C@H](O)[C@H]1O (some centres not stated),,,Activity [5]: Active
CC1(C)CC[C@]2(C(=O)OCc3nc(-c4ccc(Cl)c(Cl)c4)no3)[C@H](O)C[C@]3(C)C(=CC[C@@H]4[C@@]5(C)CC[C@H](O)C(C)(C)[C@@H]5CC[C@]43C)[C@@H]2C1,36.5%,> 30 µM,
CC1(C)CC[C@]2(C(=O)OCCn3ncn(-c4ccc(F)cc4)c3=O)[C@H](O)C[C@]3(C)C(=CC[C@@H]4[C@@]5(C)CC[C@H](O)C(C)(C)[C@@H]5CC[C@]43C)[C@@H]2C1,56.9%,29.32 µM,
CC1(C)CC[C@]2(C(=O)OCCn3ncn(-c4ccc(Cl)c(Cl)c4)c3=O)[C@H](O)C[C@]3(C)C(=CC[C@@H]4[C@@]5(C)CC[C@H](O)C(C)(C)[C@@H]5CC[C@]43C)[C@@H]2C1,80.3%,3.42 µM,CC50 at 24 h [3]: 66.8 µM; selectivity ratio [4]: 19.5
CC1(C)CC[C@]2(C(=O)OCc3nnc(-c4ccccc4)o3)[C@H](O)C[C@]3(C)C(=CC[C@@H]4[C@@]5(C)CC[C@H](O)C(C)(C)[C@@H]5CC[C@]43C)[C@@H]2C1,57.2%,19.36 µM,
COc1ccc(NC(=O)Cn2cc(COc3cc(O)c4c(=O)c5ccc(OC)cc5oc4c3)nn2)c(OC)c1,,,IC50 [8]: 2.06 µM
CC1(C)CC[C@]2(C(=O)OCC(=O)NCc3cn(-c4ccc(Cl)cc4)nn3)[C@H](O)C[C@]3(C)C(=CC[C@@H]4[C@@]5(C)CC[C@H](O)C(C)(C)[C@@H]5CC[C@]43C)[C@@H]2C1,63.3%,18.18 µM,
Cc1ccc(-n2cc(CNC(=O)[C@]34CCC(C)(C)C[C@H]3C3=CC[C@@H]5[C@@]6(C)CC[C@H](O)C(C)(C)[C@@H]6CC[C@@]5(C)[C@]3(C)C[C@H]4O)nn2)cc1,63%,21.25 µM,
CC1(C)CC[C@]2(C(=O)NCc3cn(-c4ccc(F)cc4)nn3)[C@H](O)C[C@]3(C)C(=CC[C@@H]4[C@@]5(C)CC[C@H](O)C(C)(C)[C@@H]5CC[C@]43C)[C@@H]2C1,47.7%,> 30 µM,
COc1ccc(CC2(Cc3cn(-c4ccc(C)cc4)nn3)C(=O)OC(C)(C)OC2=O)cc1,,,IC50 [8]: 4.63 µM
CC1(C)CC[C@]2(C(=O)OCCn3ncn(-c4ccccc4)c3=O)[C@H](O)C[C@]3(C)C(=CC[C@@H]4[C@@]5(C)CC[C@H](O)C(C)(C)[C@@H]5CC[C@]43C)[C@@H]2C1,46.1%,> 30 µM,
